Results as given in US20180161383A1, “NATURAL PHARMACEUTICAL COMPOSITION FOR TREATING MENOPAUSAL MENTAL DEPRESSION AND ATYPICAL DEPRESSIVE DISORDER AND APPLICATION THEREOF” (SHAANXI TIANKUI BIOMEDICINE TECHNOLOGY LIMITED COMPANY, priority 2015, published 2018).

Key:
Assay type in all cases: in vivo
noradrenaline = test: ELISA, content of noradrenaline in serum of rats; settings: rat serum, positive drug group, dose not given
Protocol: (§1) drenching animals in sequence to put to death within 3 cycles, enabling the animals to have empty stomachs for 12 hours before putting to death, and performing intraperitoneal anesthesia with 3% of pentobarbital sodium at a dose of 0.1 ml/100 g; and taking 8 ml of whole blood in a centrifuge tube, centrifuging at a rate of 4000 r/min for 15 min, separating the serum after centrifuging, labeling, and separately filling and preserving in a refrigerator of −20° C.; 2) ELISA Determination Method is as Follows: Detection is performed according to description of an ELISA kit. Before use, all reagents are fully and uniformly mixed. Lots of bubbles should not be produced in liquid, so as to avoid generating a sample adding error due to addition of lots of bubbles during sample adding. The quantity of needed plates is determined according to a quantity of to-be-detected samples and the quantity of standard substances. […] However, since many samples need to be determined, single holes should be made according to actual conditions. […] A basic principle of enzyme-labeled immunoassay is as follows: an antibody connected onto a solid-phase carrier and an enzyme-labeled antibody are respectively bound to two antigenic determinants on a detected antigen molecule in the sample to form a solid-phase antibody-antigen-enzyme-labeled antibody immune complex. […]

IL-6 = test: ELISA, content of IL-6 in serum of rats; settings: rat serum, positive drug group, dose not given
Protocol: as §1

[1] = test system: rats suffering from the menopausal depression; test: open-field water drinking test of rats; settings: positive drug group, dose not given
IL-8 = test: ELISA, content of IL-8 in serum of rats; settings: rat serum, positive drug group, dose not given
Protocol: as §1

estradiol = test: ELISA, content of estradiol in serum of rats; settings: rat serum, positive drug group, dose not given
Protocol: as §1

dopamine = test: ELISA, content of dopamine in serum of rats; settings: rat serum, positive drug group, dose not given
Protocol: as §1

[2] = test system: adrenocorticotrophic hormone; test: ELISA, content of adrenocorticotrophic hormone in serum of rats; settings: rat serum, positive drug group, dose not given
Protocol: as §1

[3] = test system: follicle-stimulating hormone; test: ELISA, content of follicle-stimulating hormone in serum of rats; settings: rat serum, positive drug group, dose not given
Protocol: as §1

5-hydroxytryptamine = test: ELISA, content of 5-hydroxytryptamine in serum of rats; settings: rat serum, positive drug group, dose not given
Protocol: as §1

IL-2 = test: ELISA, content of IL-2 in serum of rats; settings: rat serum, positive drug group, dose not given
Protocol: as §1

cGMP = test: ELISA, content of cGMP in serum of rats; settings: rat serum, positive drug group, dose not given
Protocol: as §1

cAMP = test: ELISA, content of cAMP in serum of rats; settings: rat serum, positive drug group, dose not given
Protocol: as §1

[4] = test system: rats suffering from the menopausal depression; test: open-field test of rats; design: After medication minus Before medication (Fecal weight) / Fecal weight: unit not given here; settings: positive drug group, dose not given
oxytocin = test: ELISA, content of oxytocin in serum of rats; settings: rat serum, positive drug group, dose not given
Protocol: as §1

Structure (SMILES): Fc1ccc([C@@H]2CCNC[C@H]2COc2ccc3c(c2)OCO3)cc1 [Paroxetine, paroxetine]
- NA (noradrenaline): 32.5359 ± 5.6128 ng/L
- IL-6 (IL-6): 14.9800 ± 2.9183 ng/mL
- Number of times approaching to water bottles ([1]; rats after medication): 10.43 ± 5.09
- Number of times standing ([1]; rats after medication): 11.28 ± 4.23
- Water drinking latent period ([1]; rats after medication): 88.86 ± 20.05
- Water drinking time ([1]; rats after medication): 112.14 ± 50.83
- After medication minus Before medication (Frequencies of approaching water bottles) ([1]; rats): 6.5742 ± 4.0443
- After medication minus Before medication (Standing frequency) ([1]; rats): 7.5728 ± 4.5413
- After medication minus Before medication (Water drinking time) ([1]; rats): 112.14 ± 50.83
- After medication minus Medication (Water drinking latent period) ([1]; rats): 70.43 ± 35.65
- IL-8 (IL-8): 196.479 ± 14.596 ng/L
- E2 (estradiol): 10.0566 ± 0.7140 ng/L
- DA (dopamine): 7.6595 ± 1.3337 pg/L
- ACTH [2]: 16.3682 ± 1.8767 ng/L
- FSH [3]: 3.7068 ± 0.6242 IU/L
- 5-HT (5-hydroxytryptamine): 42.9048 ± 6.2922 ng/L
- IL-2 (IL-2): 341.853 ± 59.289 ng/L
- cGMP (cGMP): 1.8333 ± 0.4686 U/L
- cAMP (cAMP): 2.7761 ± 0.3726 U/L
- Fecal weight ([4]; rats after medication): 0.14 ± 0.38
- Horizontal scores ([4]; rats after medication): 78.29 ± 28.18
- Vertical scores ([4]; rats after medication): 9.57 ± 4.68
- After medication minus Before medication (Fecal weight) ([4]; rats): −0.94 ± 0.71
- After medication minus before medication (horizontal scores) ([4]; rats): 41.14 ± 28.54
- OT (oxytocin): 4.1889 ± 0.8811 ng/L
